ChEMBL document CHEMBL1201862, “PubChem BioAssay data set” (2004)
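How tested: cells in 96-well plates exposed to compound for 48 hours at five concentrations. The concentration for 50% growth inhibition is given as GI50.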 Calls of active or inactive are those of the source. Rule as the data show it: active = GI50 up to about 1.1 µM and inactive = higher.

Experiments:
Assay in all cases: NCI anticancer screen, dose series, 48 h
NCI/ADR-RES = test system: NCI/ADR-RES
PC-3 = test system: PC-3
LOX IMVI = test system: LOX IMVI
M14 = test system: M14
A549 = test system: A549
SNB-19 = test system: SNB-19
HL-60 = test system: HL-60
SW-620 = test system: SW-620
Hs-578T = test system: Hs-578T
OVCAR-5 = test system: OVCAR-5
HCT-116 = test system: HCT-116
MDA-N = test system: MDA-N
KM-20L2 = test system: KM-20L2
DMS-273 = test system: DMS-273
XF498 = test system: XF498
DMS-114 = test system: DMS-114
SNB-78 = test system: SNB-78
M19-MEL = test system: M19-MEL
T47D = test system: T47D
LXFL 529 = test system: LXFL 529

Measured: GI50

CCOC(=O)N1CCN(Cc2cc(=O)n3cc(C)ccc3n2)CC1
inactive: NCI/ADR-RES > 100 µM | PC-3 > 100 µM | LOX IMVI > 100 µM | M14 > 100 µM | A549 > 100 µM | SNB-19 > 100 µM | HL-60 > 100 µM | SW-620 > 100 µM | Hs-578T > 100 µM | OVCAR-5 > 100 µM | HCT-116 > 100 µM | MDA-N > 100 µM

CC1CC(c2ccc([N+](=O)[O-])cc2)=Nc2ccccc2[S+]1[O-] (stereo not drawn)
inactive: KM-20L2 16.1 µM | LOX IMVI 12.1 µM | M14 18.1 µM | DMS-273 19 µM | XF498 28.7 µM | A549 20 µM | SNB-19 18.2 µM | HL-60 15.1 µM | DMS-114 18.4 µM | SNB-78 43.6 µM | SW-620 15.3 µM | M19-MEL 15.9 µM | OVCAR-5 26.5 µM | HCT-116 2.11 µM

C=C(CO)C(=O)OC1CC(=C)C2CC(O)C(C)C2C2OC(=O)C(=C)C12 (stereo not drawn)
inactive: NCI/ADR-RES 44.7 µM | PC-3 31.6 µM | LOX IMVI 29.9 µM | M14 17.3 µM | T47D 49.4 µM | A549 28.8 µM | SNB-19 22.9 µM | HL-60 25.8 µM | SW-620 22.9 µM | Hs-578T 18.4 µM | OVCAR-5 30.9 µM | HCT-116 33.2 µM | MDA-N 19.3 µM

NC(=O)c1ncn2c1CNC(=O)C2
inactive: NCI/ADR-RES > 100 µM | PC-3 > 100 µM | M14 > 100 µM | T47D > 100 µM | A549 > 100 µM | SNB-19 > 100 µM | HL-60 > 100 µM | SW-620 > 100 µM | Hs-578T > 100 µM | OVCAR-5 > 100 µM

CCCCCCNC(=O)C(C)C1CCC2(C)C=CC(=O)C(C)=C2C1O (stereo not drawn)
inactive: NCI/ADR-RES > 100 µM | KM-20L2 > 100 µM | LOX IMVI > 100 µM | DMS-273 > 100 µM | XF498 > 100 µM | A549 > 100 µM | SNB-19 > 100 µM | HL-60 > 64.4 µM | DMS-114 45.3 µM | SNB-78 > 100 µM | SW-620 > 100 µM | OVCAR-5 99.1 µM | HCT-116 > 100 µM

Nc1nc(Cl)cc(NCCCNc2cc(Cl)nc(N)n2)n1
inactive: KM-20L2 > 100 µM | LOX IMVI > 100 µM | M14 > 100 µM | LXFL 529 > 100 µM | DMS-273 > 100 µM | XF498 > 100 µM | A549 > 100 µM | HL-60 > 100 µM | DMS-114 > 100 µM | SW-620 > 100 µM | M19-MEL > 100 µM | OVCAR-5 > 100 µM | HCT-116 > 100 µM

Cc1c2ccccc2c(CO)c2cc(F)c3ccccc3c12
inactive: KM-20L2 21.1 µM | LOX IMVI 17.1 µM | DMS-273 14.8 µM | XF498 22.1 µM | A549 26.6 µM | SNB-19 30 µM | HL-60 17.6 µM | DMS-114 18.1 µM | SNB-78 24 µM | SW-620 37.5 µM | M19-MEL 35.8 µM | OVCAR-5 28 µM | HCT-116 19.3 µM

C#CCCCCC#Cc1ccccc1C(=O)OC
inactive: KM-20L2 58.2 µM | LOX IMVI 14.8 µM | M14 > 100 µM | DMS-273 38.3 µM | XF498 65.8 µM | A549 > 100 µM | SNB-19 > 100 µM | HL-60 10.2 µM | DMS-114 17.3 µM | SW-620 21.1 µM | OVCAR-5 52.8 µM | HCT-116 11 µM

Cc1ccc2c(O)cc(-c3ccc(F)cc3)nc2n1
inactive: NCI/ADR-RES 25.7 µM | LOX IMVI 30.1 µM | M14 47.6 µM | T47D 41.9 µM | A549 61.7 µM | SNB-19 65.9 µM | HL-60 14.1 µM | SW-620 28.6 µM | Hs-578T 26.5 µM | OVCAR-5 70.1 µM | MDA-N 12.1 µM

Cc1coc2c1C[C@@]1(C)[C@H](CCC[C@@H]1C)[C@H]2O
inactive: NCI/ADR-RES 24.3 µM | PC-3 19.1 µM | LOX IMVI 56.4 µM | M14 60.4 µM | T47D 19.9 µM | SNB-19 > 100 µM | HL-60 16.4 µM | SW-620 37.7 µM | Hs-578T 71.1 µM | OVCAR-5 37.2 µM | HCT-116 29.6 µM | MDA-N 49.9 µM

COc1cc2c(cc1O)CCN(C)[C@H]2Cc1ccc(Oc2c(O)c(OC)cc3c2C[C@H]2c4c(c(OC)c(OC)c(OC)c4-3)CCN2C)cc1 [THALIFABERIDINE]
inactive: NCI/ADR-RES 5.56 µM | PC-3 4.31 µM | LOX IMVI 1.72 µM | M14 5.4 µM | T47D 6.05 µM | A549 4.94 µM | SNB-19 6.34 µM | HL-60 4.24 µM | SW-620 4.71 µM | Hs-578T 5.3 µM | OVCAR-5 7.5 µM | HCT-116 2.99 µM | MDA-N 4.94 µM

NCC[Se][Se]CCN
inactive: NCI/ADR-RES 9.31 µM | PC-3 10.9 µM | M14 3.83 µM | T47D 5.58 µM | A549 6.03 µM | SNB-19 8.47 µM | HL-60 1.8 µM | SW-620 10.7 µM | Hs-578T 12.4 µM | OVCAR-5 5.56 µM | HCT-116 4.28 µM | MDA-N 10.9 µM
